What was measured:
p300 = molecular target: T1, p300 (Homo sapiens, UniProt Q09472); assay: P300 degradation, HiBit technology in A549 P300 HiBit cells (2 h); type: cell-based; conditions: 2 hrs post treatment; for Dmax: A549, A549 P300 HiBit cells; for DC50: A549 P300 HiBit cells
T1 construct: host or cells: A549 P300 HiBit cells
Method in brief: (§1)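 A549 HiBiT knock-in cells seeded overnight at 37 °C, 5% CO2 in F-12K with 10% heat-inactivated FBS, then given serial dilutions of compound from 10 mM DMSO stocks. Lytic HiBiT detection reagent added for 10 min at room temperature; luminescence read. Potency and Dmax reported.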

CBP = molecular target: T2, CBP (Homo sapiens, UniProt Q92793); assay: CBP degradation, HiBit technology in A549 CBP HiBit cells (24 h); type: cell-based; conditions: 24 hrs post treatment
T2 construct: host or cells: A549 CBP HiBit cells
Method in brief: as §1

T1 sequence (Q09472 whole entry): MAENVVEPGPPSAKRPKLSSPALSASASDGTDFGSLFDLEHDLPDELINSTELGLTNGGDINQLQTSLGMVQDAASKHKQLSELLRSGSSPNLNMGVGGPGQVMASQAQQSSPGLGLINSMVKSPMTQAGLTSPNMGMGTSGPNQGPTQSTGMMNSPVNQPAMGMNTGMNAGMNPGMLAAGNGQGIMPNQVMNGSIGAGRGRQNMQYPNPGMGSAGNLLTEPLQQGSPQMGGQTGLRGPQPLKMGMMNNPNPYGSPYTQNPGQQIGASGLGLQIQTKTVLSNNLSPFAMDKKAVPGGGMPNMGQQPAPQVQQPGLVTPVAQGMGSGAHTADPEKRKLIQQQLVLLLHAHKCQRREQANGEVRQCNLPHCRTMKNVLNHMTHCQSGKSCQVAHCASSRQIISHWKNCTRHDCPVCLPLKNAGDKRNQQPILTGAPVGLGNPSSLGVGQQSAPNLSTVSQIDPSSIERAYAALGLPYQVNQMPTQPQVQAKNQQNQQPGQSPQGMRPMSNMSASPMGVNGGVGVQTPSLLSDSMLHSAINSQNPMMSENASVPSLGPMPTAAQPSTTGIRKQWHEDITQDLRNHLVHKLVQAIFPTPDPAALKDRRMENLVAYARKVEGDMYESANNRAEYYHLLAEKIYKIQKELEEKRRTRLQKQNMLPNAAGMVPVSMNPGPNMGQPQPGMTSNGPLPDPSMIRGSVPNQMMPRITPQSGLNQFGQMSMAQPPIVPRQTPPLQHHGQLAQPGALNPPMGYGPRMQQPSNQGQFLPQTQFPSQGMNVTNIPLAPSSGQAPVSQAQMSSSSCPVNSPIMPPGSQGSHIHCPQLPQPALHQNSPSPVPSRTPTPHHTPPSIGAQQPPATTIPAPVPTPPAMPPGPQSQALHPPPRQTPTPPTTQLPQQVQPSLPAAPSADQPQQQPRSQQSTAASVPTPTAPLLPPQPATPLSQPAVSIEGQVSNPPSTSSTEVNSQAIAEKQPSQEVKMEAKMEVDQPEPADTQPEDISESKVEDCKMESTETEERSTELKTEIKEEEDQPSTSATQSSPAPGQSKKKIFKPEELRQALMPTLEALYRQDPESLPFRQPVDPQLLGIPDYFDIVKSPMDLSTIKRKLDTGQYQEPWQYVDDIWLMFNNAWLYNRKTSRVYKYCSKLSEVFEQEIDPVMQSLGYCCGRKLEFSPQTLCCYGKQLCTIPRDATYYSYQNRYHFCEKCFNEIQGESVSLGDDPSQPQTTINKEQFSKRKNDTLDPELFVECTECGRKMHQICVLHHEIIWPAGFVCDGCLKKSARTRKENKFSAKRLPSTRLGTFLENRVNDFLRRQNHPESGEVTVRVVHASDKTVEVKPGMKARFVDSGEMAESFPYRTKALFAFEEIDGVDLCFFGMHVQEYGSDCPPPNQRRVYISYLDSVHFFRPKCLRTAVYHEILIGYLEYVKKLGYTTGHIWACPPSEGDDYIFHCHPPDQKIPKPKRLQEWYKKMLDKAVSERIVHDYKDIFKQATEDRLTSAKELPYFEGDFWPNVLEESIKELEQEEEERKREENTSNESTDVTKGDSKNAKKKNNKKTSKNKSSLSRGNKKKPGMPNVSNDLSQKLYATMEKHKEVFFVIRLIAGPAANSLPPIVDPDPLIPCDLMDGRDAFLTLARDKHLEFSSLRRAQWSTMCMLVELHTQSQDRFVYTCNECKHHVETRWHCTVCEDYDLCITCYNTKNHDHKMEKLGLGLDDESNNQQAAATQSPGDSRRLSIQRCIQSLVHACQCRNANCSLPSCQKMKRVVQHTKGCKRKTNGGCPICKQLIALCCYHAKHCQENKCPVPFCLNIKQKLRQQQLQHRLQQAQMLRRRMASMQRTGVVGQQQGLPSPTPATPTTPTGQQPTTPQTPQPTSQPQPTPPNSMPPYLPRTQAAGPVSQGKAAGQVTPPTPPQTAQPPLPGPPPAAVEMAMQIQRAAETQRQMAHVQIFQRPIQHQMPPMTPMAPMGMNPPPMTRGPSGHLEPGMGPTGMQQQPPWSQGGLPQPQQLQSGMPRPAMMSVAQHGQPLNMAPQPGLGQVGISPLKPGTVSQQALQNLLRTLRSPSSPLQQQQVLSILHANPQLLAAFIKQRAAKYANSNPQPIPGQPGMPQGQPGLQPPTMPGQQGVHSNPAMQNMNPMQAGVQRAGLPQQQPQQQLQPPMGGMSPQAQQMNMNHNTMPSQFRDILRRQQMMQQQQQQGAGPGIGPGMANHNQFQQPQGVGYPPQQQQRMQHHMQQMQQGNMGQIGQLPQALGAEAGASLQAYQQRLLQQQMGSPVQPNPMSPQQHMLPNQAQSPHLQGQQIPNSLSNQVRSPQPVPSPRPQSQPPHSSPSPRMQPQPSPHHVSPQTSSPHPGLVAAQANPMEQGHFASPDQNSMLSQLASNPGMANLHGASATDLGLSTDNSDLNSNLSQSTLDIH
T2 sequence (Q92793 whole entry): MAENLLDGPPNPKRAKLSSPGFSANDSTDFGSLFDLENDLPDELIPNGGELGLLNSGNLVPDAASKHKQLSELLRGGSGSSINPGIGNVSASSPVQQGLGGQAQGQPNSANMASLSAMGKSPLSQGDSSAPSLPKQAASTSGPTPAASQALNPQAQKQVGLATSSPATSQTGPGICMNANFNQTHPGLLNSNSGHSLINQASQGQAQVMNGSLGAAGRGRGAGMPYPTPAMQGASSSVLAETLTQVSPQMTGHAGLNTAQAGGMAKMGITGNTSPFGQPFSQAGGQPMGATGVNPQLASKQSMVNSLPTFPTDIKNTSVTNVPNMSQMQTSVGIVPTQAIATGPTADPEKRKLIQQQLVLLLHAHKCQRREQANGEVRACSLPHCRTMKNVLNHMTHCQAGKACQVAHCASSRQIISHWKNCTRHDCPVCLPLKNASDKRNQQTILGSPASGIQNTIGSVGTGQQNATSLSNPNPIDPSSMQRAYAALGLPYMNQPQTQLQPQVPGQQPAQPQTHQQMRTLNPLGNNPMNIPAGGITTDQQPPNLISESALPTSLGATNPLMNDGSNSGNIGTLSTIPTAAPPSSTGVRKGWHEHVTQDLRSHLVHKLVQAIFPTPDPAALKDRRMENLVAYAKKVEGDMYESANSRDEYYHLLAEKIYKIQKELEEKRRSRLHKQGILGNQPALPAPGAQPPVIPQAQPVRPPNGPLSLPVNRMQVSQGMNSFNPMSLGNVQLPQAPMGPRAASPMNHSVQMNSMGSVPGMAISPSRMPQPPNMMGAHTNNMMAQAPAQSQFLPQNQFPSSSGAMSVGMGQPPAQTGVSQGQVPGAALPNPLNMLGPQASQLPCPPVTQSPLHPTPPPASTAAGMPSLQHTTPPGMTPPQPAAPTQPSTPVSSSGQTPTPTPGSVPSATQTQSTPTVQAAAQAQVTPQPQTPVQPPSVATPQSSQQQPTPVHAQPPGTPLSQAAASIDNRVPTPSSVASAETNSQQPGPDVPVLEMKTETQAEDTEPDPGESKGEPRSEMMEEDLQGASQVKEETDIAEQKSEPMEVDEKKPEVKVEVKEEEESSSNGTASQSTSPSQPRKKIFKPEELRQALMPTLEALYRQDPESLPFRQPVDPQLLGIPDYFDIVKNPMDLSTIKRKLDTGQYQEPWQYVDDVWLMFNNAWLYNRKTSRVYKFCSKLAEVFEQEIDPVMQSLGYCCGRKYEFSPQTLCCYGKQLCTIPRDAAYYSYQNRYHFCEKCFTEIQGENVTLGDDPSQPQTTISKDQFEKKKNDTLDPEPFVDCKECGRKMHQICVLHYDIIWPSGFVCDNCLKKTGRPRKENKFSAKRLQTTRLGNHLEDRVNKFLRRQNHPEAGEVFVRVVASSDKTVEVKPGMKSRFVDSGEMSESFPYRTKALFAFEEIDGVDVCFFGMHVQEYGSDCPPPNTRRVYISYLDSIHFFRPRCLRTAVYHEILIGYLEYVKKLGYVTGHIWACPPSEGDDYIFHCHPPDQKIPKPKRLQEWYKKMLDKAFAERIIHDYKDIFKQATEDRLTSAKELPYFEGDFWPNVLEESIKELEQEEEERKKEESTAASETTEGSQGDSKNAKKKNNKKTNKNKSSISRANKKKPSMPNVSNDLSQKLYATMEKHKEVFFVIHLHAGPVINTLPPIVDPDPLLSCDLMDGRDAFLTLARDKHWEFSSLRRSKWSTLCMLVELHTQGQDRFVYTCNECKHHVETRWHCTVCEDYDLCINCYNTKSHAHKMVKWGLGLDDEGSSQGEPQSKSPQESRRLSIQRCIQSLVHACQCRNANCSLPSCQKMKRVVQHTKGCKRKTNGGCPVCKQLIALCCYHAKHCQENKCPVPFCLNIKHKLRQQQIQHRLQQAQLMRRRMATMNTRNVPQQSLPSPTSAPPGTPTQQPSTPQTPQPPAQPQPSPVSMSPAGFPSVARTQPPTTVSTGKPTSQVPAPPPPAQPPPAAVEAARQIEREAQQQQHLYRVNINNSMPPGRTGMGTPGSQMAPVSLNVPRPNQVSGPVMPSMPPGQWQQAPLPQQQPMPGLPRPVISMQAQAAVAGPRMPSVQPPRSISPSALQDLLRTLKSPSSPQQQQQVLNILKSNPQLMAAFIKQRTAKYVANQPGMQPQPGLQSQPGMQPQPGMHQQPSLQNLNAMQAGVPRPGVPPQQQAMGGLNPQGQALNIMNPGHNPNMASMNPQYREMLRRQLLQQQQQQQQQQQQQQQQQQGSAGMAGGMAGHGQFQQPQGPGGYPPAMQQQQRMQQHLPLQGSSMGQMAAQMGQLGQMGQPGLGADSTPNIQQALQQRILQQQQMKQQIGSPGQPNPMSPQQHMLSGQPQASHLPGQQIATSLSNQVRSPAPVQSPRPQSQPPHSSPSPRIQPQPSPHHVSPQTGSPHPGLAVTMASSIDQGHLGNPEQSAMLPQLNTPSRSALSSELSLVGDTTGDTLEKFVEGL

Compound | Dmax (p300) | DC50 (p300) | DC50 (CBP) | Dmax (CBP)
Cc1cc(-c2cc3c(cc2F)N(c2ccc4c(c2)n(C)c(=O)n4C)CCO3)cnc1C(=O)NCC#Cc1ccc2occ(C3CCC(=O)NC3=O)c2c1 (stereo not drawn) [Example A111, 5-(4-(1,3-dimethyl-2-oxo-2,3-dihydro-1H-benzo[d]imidazol-5-yl)-6-fluoro-3,4-dihydro-2H-benzo[b] [1,4]oxazin-7-yl)-N-(3-(3-(2,6-dioxo-piperidin-3-yl)benzofuran-5-yl)prop-2-yn-1-yl)-3-methylpicolinamide] | > 80% | 0.01 to 0.099 µM | > 1 µM | < 20%
Cc1cc2c(N3CCCc4nc(-c5ccc(C(=O)NCC#Cc6ccc7occ([C@@H]8CCC(=O)NC8=O)c7c6)nc5)ncc43)cc(C3CCOCC3)cc2n(C)c1=O [Example B55, (S)-5-(5-(1,3-dimethyl-2-oxo-7-(tetrahydro-2H-pyran-4-yl)-1,2-dihydroquinolin-5-yl)-5,6,7,8-tetrahydropyrido[3,2-d]pyrimidin-2-yl)-N-(3-(3-(2,6-dioxopiperidin-3-yl)benzofuran-5-yl)prop-2-yn-1-yl)picolinamide] | > 80% | 0.001 to 0.0099 µM | > 1 µM | < 20%
Cn1c(=O)n(C)c2cc(N3CCCc4nc(-c5ccc(C(=O)NCC#Cc6ccc7occ(C8CCC(=O)NC8=O)c7c6)nc5)ncc43)ccc21 (stereo not drawn) [Example A132, 5-(5-(1,3-dimethyl-2-oxo-2,3-dihydro-1H-benzo[d]imidazol-5-yl)-5,6,7,8-tetrahydropyrido[3,2-d]pyrimidin-2-yl)-N-(3-(3-(2,6-dioxo-piperidin-3-yl)benzofuran-5-yl)prop-2-yn-1-yl)picolinamide] | > 80% | 0.001 to 0.0099 µM | > 1 µM | < 20%
CC(C)c1cc(-c2cccc3cc(-c4ccc(C(=O)NCC#Cc5ccc6scc(C7CCC(=O)NC7=O)c6c5)nc4)ncc23)cc2c1n(C)c(=O)n2C (stereo not drawn) [Example A164, N-(3-(3-(2,6-dioxo-piperidin-3-yl)benzo[b]thiophen-5-yl)prop-2-yn-1-yl)-5-(8-(7-isopropyl-1,3-dimethyl-2-oxo-2,3-dihydro-1H-benzo [d]imidazol-5-yl)isoquinolin-3-yl)picolinamide] | > 80% | 0.01 to 0.099 µM | > 1 µM | < 20%
CC(C)c1cc(N2CCCc3nc(-c4ccc(C(=O)NCC#Cc5ccc6occ(C7CCC(=O)NC7=O)c6c5)nc4)ncc32)cc2c1n(C)c(=O)n2C (stereo not drawn) [Example A133, N-(3-(3-(2,6-dioxo-piperidin-3-yl)benzofuran-5-yl)prop-2-yn-1-yl)-5-(5-(7-isopropyl-1,3-dimethyl-2-oxo-2,3-dihydro-1H-benzo [d]imidazol-5-yl)-5,6,7,8-tetrahydro-pyrido[3,2-d]pyrimidin-2-yl)picolinamide] | > 80% | 0.001 to 0.0099 µM | 0.1 to 0.999 µM | < 20%
CCn1c(=O)n(C)c2c(N3CCOCC3)nc(-c3cccc4cc(-c5ccc(C(=O)NCC#Cc6cc7c(C8CCC(=O)NC8=O)cccc7o6)nc5)ncc34)cc21 (stereo not drawn) [Example A260, N-(3-(4-(2,6-dioxo-piperidin-3-yl)benzofuran-2-yl)prop-2-yn-1-yl)-5-(8-(1-ethyl-3-methyl-4-morpholino-2-oxo-2,3-dihydro-1H-imidazo[4,5-c]pyridin-6-yl)isoquinolin-3-yl)picolinamide] | > 80% | < 0.001 µM | > 1 µM | < 20%
Cn1c(=O)n(C)c2cc(-c3cccc4cc(-c5ccc(C(=O)NCC#Cc6cc7c(C8CCC(=O)NC8=O)cccc7o6)nc5)ncc34)ccc21 (stereo not drawn) [Example A169, 5-(8-(1,3-dimethyl-2-oxo-2,3-dihydro-1H-benzo[d]imidazol-5-yl)isoquinolin-3-yl)-N-(3-(4-(2,6-dioxo-piperidin-3-yl)benzofuran-2-yl)prop-2-yn-1-yl)picolinamide] | > 80% | < 0.001 µM | > 1 µM | < 20%
Cc1cc(N2CCOc3nc(-c4ccc(C(=O)NCC#Cc5ccc6occ(C7CCC(=O)NC7=O)c6c5)nc4)ncc32)cc2c1n(C)c(=O)n2C (stereo not drawn) [Example A68, N-(3-(3-(2,6-dioxopiperidin-3-yl)benzofuran-5-yl)prop-2-yn-1-yl)-5-(5-(1,3,7-trimethyl-2-oxo-2,3-dihydro-1H-benzo[d]imidazol-5-yl)-6,7-dihydro-5H-pyrimido [4,5-b][1,4]oxazin-2-yl)picolinamide] | > 80% | 0.001 to 0.0099 µM | > 1 µM | < 20%

Results, then the compound that gave them:

Dmax (p300) | DC50 (p300) | DC50 (CBP) | Dmax (CBP) | Compound
> 80% | 0.001 to 0.0099 µM | > 1 µM | < 20% | Cc1cc2c(N3CCCc4nc(-c5ccc(C(=O)NCC#Cc6cc7c([C@@H]8CCC(=O)NC8=O)cccc7o6)nc5)ncc43)cc(C3CCOCC3)nc2n(C)c1=O [Example B49, (S)-5-(5-(6,8-dimethyl-7-oxo-2-(tetrahydro-2H-pyran-4-yl)-7,8-dihydro-1,8-naphthyridin-4-yl)-5,6,7,8-tetrahydropyrido[3,2-d]pyrimidin-2-yl)-N-(3-(4-(2,6-dioxopiperidin-3-yl)benzofuran-2-yl)prop-2-yn-1-yl)picolinamide]
> 80% | < 0.001 µM | 0.1 to 0.999 µM | < 20% | Cc1cc2c(N3CCCc4nc(-c5ccc(C(=O)NCC#Cc6cc7c(C8CCC(=O)NC8=O)nccc7o6)nc5)ncc43)cccc2n(C)c1=O (stereo not drawn) [Example B106, 5-(5-(1,3-dimethyl-2-oxo-1,2-dihydroquinolin-5-yl)-5,6,7,8-tetrahydropyrido[3,2-d]pyrimidin-2-yl)-N-(3-(4-(2,6-dioxopiperidin-3-yl)furo [3,2-c]pyridin-2-yl)prop-2-yn-1-yl) picolinamide]
> 80% | 0.001 to 0.0099 µM | > 1 µM | < 20% | Cc1cc2c(N3CCCc4nc(-c5ccc(C(=O)NCC#Cc6cc7c(C8CCC(=O)NC8=O)cccc7o6)nc5)ncc43)nc(N3CCC(C)(O)CC3)cc2n(C)c1=O (stereo not drawn) [Example B162, N-(3-(4-(2,6-dioxopiperidin-3-yl)benzofuran-2-yl)prop-2-yn-1-yl)-5-(5-(7-(4-hydroxy-4-methylpiperidin-1-yl)-1,3-dimethyl-2-oxo-1,2-dihydro-1,6-naphthyridin-5-yl)-5,6,7,8-tetrahydropyrido[3,2-d]pyrimidin-2-yl) picolinamide]
> 80% | 0.001 to 0.0099 µM | > 1 µM | < 20% | Cc1cc2c(N3CCCc4nc(-c5ccc(C(=O)NCC#Cc6ccc7occ(C8CCC(=O)NC8=O)c7c6)nc5)ccc43)cc(C3CCOCC3)cc2n(C)c1=O (stereo not drawn) [Example B127, 5-(5-(1,3-dimethyl-2-oxo-7-(tetrahydro-2H-pyran-4-yl)-1,2-dihydroquinolin-5-yl)-5,6,7,8-tetrahydro-1,5-naphthyridin-2-yl)-N-(3-(3-(2,6-dioxopiperidin-3-yl)benzofuran-5-yl)prop-2-yn-1-yl)picolinamide]

Source: patent publication US20250114345A1, “COMPOUNDS AND COMPOSITIONS AS CBP/P300 DEGRADERS AND USES THEREOF” (Oncopia Therapeutics, Inc. d/b/a/ SK Life Science Labs, priority 2023, published 2025)
